Reference: paper PMC6057649, “Development of NanoLuc-PEST expressing Leishmania mexicana as a new drug discovery tool for axenic- and intramacrophage-based assays” (PLoS Neglected Tropical Diseases, 2018)

Tested on: NanoLuc-PEST expressing L. mexicana axenic amastigotes
Test: microbe, parasite or virus in culture
Type: cell-based
Settings: 72 hours, relative to DMSO only control, n = 4; for viability at 2 µM / viability at 10 µM: Leishmania mexicana, read-out: Relative Bioluminescence (%)

| SMILES | Relative Bioluminescence (%) (2 µM compound) | Relative Bioluminescence (%) (10 µM compound) | viability at 2 µM (2 µM compound) [%] | viability at 10 µM (10 µM compound) [%] |
| --- | --- | --- | --- | --- |
| c1ccc(-c2nc(NC3CCCCC3)cc(C3CC3)n2)nc1 [MMV021013] | 11.73 | 1.47 |  |  |
| [H]/N=C(/N)N[C@H]1[C@H](O)[C@@H](O)[C@H](O[C@@H]2O[C@@H](C)[C@](O)(C=O)[C@H]2O[C@@H]2O[C@@H](CO)[C@H](O)[C@@H](O)[C@@H]2NC)[C@@H](N/C(N)=N\[H])[C@@H]1O [MMV688994, Streptomycin, reference compound] |  |  | 94 | 84.3 |
| CC(C)(C)n1nc(Cc2cccc3ccccc23)c2c(N)ncnc21 [MMV676599] | 80.19 | 31.83 |  |  |
| CN1CCN(CCCOc2ncc(Nc3ncc(-c4ccc(C(F)(F)F)c(F)c4)nc3C(N)=O)cn2)CC1 [MMV687812] | 66.08 | 77.79 |  |  |
| CC(=O)N1CCN(c2ccc(Oc3ccc(Cl)cc3O)cc2)CC1 [MMV688330] | 97.96 | 79.07 |  |  |
| COC(=O)c1cccc2oc(-c3cccc(OC)c3NC(=O)c3cc(-c4ccccc4)on3)nc12 [MMV676186] | 83.95 | 21.54 |  |  |
| O=C(c1ccco1)N(CCCn1ccnc1)c1nc2c(Cl)cccc2s1 [MMV688936] | 80.40 | 77.21 |  |  |
| Cc1cc(Cl)c(S(=O)(=O)N2CCCC2)cc1OCC(=O)NC1CCCCC1 [MMV006833] | 98.68 | 81.43 |  |  |
| Cc1ccc2nc(C)c(-c3ccn(Cc4ccccc4)n3)n2c1 [MMV688939] | 75.51 | 51.85 |  |  |
| CC(C)(C)C(O)C(Oc1ccc(-c2ccccc2)cc1)n1cncn1 (stereo not drawn) [MMV688942, Bitertanol] |  |  | 21 | 15.4 |
| COc1cccn2c(C(=O)N3CCCCC3)c(C(F)(F)F)nc12 [MMV1110498] | 66.34 | 77.35 |  |  |
| CCn1cnc2c(Nc3cc(F)cc(F)c3)nc(C#N)nc21 [MMV676881] | 76.51 | 54.00 |  |  |
| COc1cc(-c2cc(-c3ccc(S(C)(=O)=O)cc3)cnc2N)ccc1O [MMV010576] | 44.69 | 21.84 |  |  |
| COc1cccc(-c2nc3c(N4CCCC4)cccc3n2CC2CCCN2)n1 (stereo not drawn) [MMV687703] | 48.25 | 76.96 |  |  |
| Nc1nc(N)c2c3c(sc2n1)CN(Cc1ccccc1)CC3 [MMV688345] | 105.25 | 69.94 |  |  |
| Cc1c[nH]c(CCNC(=O)c2cc(-c3ccc(Cl)cc3)cs2)n1 [MMV676350] | 84.72 | 104.94 |  |  |
| c1ccc(-c2cc(N3CCCCC3)c3ccccc3n2)nc1 [MMV560185] | 64.27 | 94.77 |  |  |
| CC(C)(C)n1nc(Cc2ccc(F)c(Cl)c2)c2c(N)ncnc21 [MMV688852] | 73.28 | 34.77 |  |  |
| CC(C)n1ncc2c(C(=O)NCC(c3cccs3)N3CCOCC3)cc(-c3ccccc3)nc21 (stereo not drawn) [MMV676406] | 54.35 | 35.79 |  |  |
| COc1ccc(-c2cc(NC(=O)c3ccc(F)cc3Cl)ccc2OC)cc1 [MMV676526] | 103.78 | 46.48 |  |  |
| Nc1ncc(Br)cc1-c1nc2cc(Cl)cnc2[nH]1 [MMV676358] | 93.00 | 64.12 |  |  |
| Cc1cc(OCC(=O)NCc2ccccc2)c2cc(Br)ccc2n1 [MMV687747] | 76.47 | 30.38 |  |  |
| COC(=O)c1ccc(F)cc1NS(=O)(=O)c1cccc(-c2cnn(Cc3ccccc3)c2)c1 [MMV688350] | 101.75 | 91.24 |  |  |
| Cc1ccc(NC(=O)CC2COc3ccccc3O2)cc1Cl (stereo not drawn) [MMV676431] | 104.86 | 65.31 |  |  |
